Results on 14 compounds are retold here after PubChem BioAssay (NCI).

What all share (assay): NCI tumour cell line growth inhibition, 48 h
Assay [1] concerns SN12C renal.
Assay [2] has as its system A549 NSCLC.
Assay [3] concerns HL-60(TB) leukemia.
The test system of assay [4] is SNB-19 CNS.
Assay [5] concerns EKVX NSCLC.
Assay [6] deals with T-47D breast.
The test system of assay [7] is OVCAR-5 ovarian.
In assay [8] the test system is UO-31 renal.
Assay [9] concerns RPMI-8226 leukemia.
Assay [10] has as its system HCC-2998 colon.

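Where inhibition never reached the appropriate level, the endpoint shown equals the highest concentration tested. Otherwise, values were interpolated linearly from a five-concentration, 48-hour dose response in 96-well plates. The concentration for full growth arrest is given as TGI.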

As to `O=Cc1cc(O)c(O)c(/C=N/n2c3ccccc3c3ccccc32)c1`, the TGI in [1] was 18.2 µM; in assay [2], greater than 100 µM; in [3], 6.32 µM; in assay [4], greater than 100 µM; in [5] it was 43.5 µM; in assay [6], 40.4 µM. The TGI in assay [7] stood at 49 µM; in assay [8], 26.1 µM; in assay [9], 6.49 µM; in [10], 30.9 µM.

Consider `O=C(c1ccccc1)n1[nH]c(=O)n(-c2ccc(Cl)cc2)c1=O`, for which the TGI is greater than 100 µM in assay [1]; greater than 100 µM in [2]; greater than 100 µM in assay [3]; 83.3 µM in assay [4]; greater than 100 µM in assay [5]; greater than 100 µM in [6]. Besides, the TGI in assay [7], in assay [8], in [9] and in assay [10] was greater than 100 µM throughout.

Take `N#CI1OC(C(F)(F)F)(C(F)(F)F)c2ccccc21`: the TGI in [1] is 68 µM; in assay [2] it was greater than 100 µM; in assay [3], greater than 100 µM; in assay [5], 30.1 µM; in [6], 49.3 µM; in [7], 36.6 µM. Besides, the TGI in assay [8] is 28.6 µM; in assay [9], greater than 100 µM; in assay [10], 36.1 µM.

As for `COc1cccc(/C=N/n2c(Cc3ccc(Cl)cc3)n[nH]c2=O)c1`, the TGI in assay [1] is 71 µM; in assay [2], greater than 100 µM; in assay [3], greater than 100 µM; in assay [4], 67.8 µM; in assay [5], greater than 84 µM; in [6] it was greater than 68.2 µM. Besides, the TGI in assay [7], in assay [8], in [9] and in [10] was greater than 100 µM each time.

Take `CCOC(=O)O/N=C1/C(c2c(O)[nH]c3ccccc23)=Nc2ccccc21`: the TGI in assay [1] was found to be 23.2 µM; in assay [2] it was 33.1 µM; in [3], 24.1 µM; in [4] it was 95.1 µM; in assay [5], 13.5 µM; in assay [6] it was 25.6 µM. For the same compound, the TGI is 56.2 µM in assay [7], 40.6 µM in [8], greater than 100 µM in [9] and 6.46 µM in assay [10].

Consider `O=[N+]([O-])c1ccc(Cl)cc1N/N=C/c1cccs1`, for which the TGI in [1], in assay [2], in [3], in [4], in assay [5] and in [6] was greater than 100 µM in each case. In addition, the TGI in assay [8], in [9] and in [10] was greater than 100 µM each time.

Take `CC(C)(CN1CCCCC1)C(=O)/C=C/c1c(Cl)cccc1Cl`: the TGI in assay [1] was determined as 3.1 µM; in [2], 5.51 µM; in assay [3], 4.37 µM; in [4] it was 8.39 µM; in [5], 3.24 µM; in assay [6], 1.44 µM. The figures for the TGI in assay [7], in assay [8] and in assay [10] were 2.97 µM, 2.27 µM and 3.23 µM, respectively.

`Cc1nc(N)nc(N)c1N1CCN(Cc2ccccc2)CC1`: the TGI in assay [1], in assay [2], in [3], in assay [4], in assay [5] and in assay [6] was greater than 100 µM in each case. In addition, the TGI in assay [7] was greater than 100 µM; in assay [8], greater than 100 µM; in assay [9], greater than 95.6 µM; in [10] it was greater than 100 µM.

Turning to `CCOC(=O)/C=C(/C(=O)OCC)n1ccc(=O)[nH]c1=O`, the TGI was 19.6 µM in [1]; 33.8 µM in assay [2]; 4.08 µM in [3]; 29.8 µM in assay [4]; 23 µM in [5]; 16.6 µM in assay [6]. For the same compound, the TGI in assay [7] is 14.4 µM; in assay [8], 27.8 µM; in assay [9], 11.3 µM; in assay [10] it was 32.3 µM.

As to `CC12CCC(C1)C(C)(C)C2OC(=O)c1ccccc1C(=O)O` (centres undefined), the TGI in [1], in assay [2], in assay [3], in assay [4], in assay [5] and in [6] was greater than 100 µM each time. Besides, the TGI in [7], in assay [8], in assay [9] and in [10] was greater than 100 µM each time.

As for `COc1cc(C)cc(OC)c1/C=C/C(=O)O`, the TGI in assay [1], in [2], in assay [3], in [4], in assay [5] and in assay [6] was greater than 100 µM each time. The TGI in assay [7], in assay [8], in [9] and in assay [10] was greater than 100 µM throughout.

With `C=C1[C@H](OCC(C)C)[C@@H](OC(=O)C(C)CC)[C@@H](O)C(C)(C)/C=C/[C@H](C)C(=O)[C@@]2(O)C[C@H](C)[C@H](O)[C@@H]2[C@H]1OC(=O)C(C)CC` (some centres undefined), the TGI was greater than 20 µM in [1]; greater than 20 µM in assay [2]; 19 µM in [3]; greater than 20 µM in assay [4]; greater than 20 µM in assay [5]; greater than 20 µM in assay [6]. The TGI was greater than 17.7 µM in assay [7], greater than 5.12 µM in assay [8], 12 µM in [9] and greater than 9.84 µM in [10].

With `COC1=CCC2=C(CCN(C(=O)C3CCC3)C2Cc2ccc(OC)c(O)c2)C1` (centres undefined), the TGI was 54.3 µM in assay [1]; greater than 100 µM in assay [2]; 51.5 µM in assay [3]; greater than 100 µM in assay [4]; 88.9 µM in assay [5]; 62.4 µM in assay [6]. For the same compound, the TGI was 92 µM in [7], greater than 100 µM in assay [9] and 41.3 µM in assay [10].

Turning to `CN(/N=C/c1ccc(Cl)c(Cl)c1)C1=NCCN1`, the TGI in assay [1] was 92.7 µM; in assay [2], greater than 100 µM; in [4], greater than 100 µM; in [5] it was greater than 100 µM; in assay [6], 90.8 µM; in [7] it was greater than 100 µM. For the same compound, the values for the TGI in [9] and in assay [10] were 60.9 µM and 75.2 µM, respectively.
